Results from ChEMBL document CHEMBL3352145, “Structure-based design of novel human Pin1 inhibitors (III): optimizing affinity beyond the phosphate recognition pocket” (Bioorg Med Chem Lett, 2014).
Values after ≈ are worked out from the molar mass of the structure shown. Active and inactive are the calls of the source. No cut-off for these calls is given here.

Key:
[1] = Aqueous solubility of the compound; format: physicochemical; conditions: buffer
[2] = Dissociation constant, pKa of the compound; format: physicochemical
[3] = target: Peptidyl-prolyl cis-trans isomerase NIMA-interacting 1 (Homo sapiens, UniProt Q13526); experiment: Inhibition of Pin1 (unknown origin)
[4] = Lipophilicity, log P of the compound; format: physicochemical; conditions: octanol/water
[5] = test system: HT-29; experiment: Antiproliferative activity against human HT-29 cells; format: functional, cell-based
[6] = test system: HT-29; experiment: Induction of histological changes in human HT-29 cells assessed as fragmented phenotype at 50 uM by DAPI staining; format: functional, cell-based
[7] = test system: HT-29; experiment: Cell cycle arrest in human HT-29 cells assessed as cells accumulation at sub G1 phase at 50 uM by FACS analysis (Rvb =<1%); format: functional
[8] = test system: HT-29; experiment: Cell cycle arrest in human HT-29 cells assessed as cells accumulation at S phase at 50 uM by FACS analysis (reference value: 37%); format: functional
[9] = test system: HT-29; experiment: Cell cycle arrest in human HT-29 cells assessed as cells accumulation at G2/M phase at 50 uM by FACS analysis (reference value: 6.2%); format: functional
[10] = test system: HT-29; experiment: Cell cycle arrest in human HT-29 cells assessed as cells accumulation at G0/G1 phase at 50 uM by FACS analysis (reference value: 56.9%); format: functional

Sequence of Peptidyl-prolyl cis-trans isomerase NIMA-interacting 1 (Q13526 whole entry): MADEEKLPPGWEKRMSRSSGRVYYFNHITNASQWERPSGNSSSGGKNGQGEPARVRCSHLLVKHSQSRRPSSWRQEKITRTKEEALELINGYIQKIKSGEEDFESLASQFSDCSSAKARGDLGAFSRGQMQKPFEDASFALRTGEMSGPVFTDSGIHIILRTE

Structure (SMILES): O=C(CC1c2ccccc2-c2ccccc21)N[C@H](Cc1cc2ccc(F)cc2[nH]1)C(=O)O
- solubility [1]: > 100 µg/mL
- pKa [2]: 3.9
- Ki [3]: 12 nM
- logP [4]: 3.6

Structure (SMILES): O=C(NC(Cc1cc2ccccc2[nH]1)C(=O)O)c1ccc2ccccc2c1 (centres undefined)
- Ki [3]: 1900 nM

Structure (SMILES): O=C(NC(Cc1cc2ccccc2o1)C(=O)O)c1ccc2ccccc2c1 (centres undefined)
- Ki [3]: 10000 nM

Structure (SMILES): Cc1ccc2[nH]c(C[C@@H](NC(=O)c3ccc4ccccc4c3)C(=O)O)nc2c1
- Ki [3]: 780 nM

Structure (SMILES): O=C(N[C@H](Cc1nc2cc(Cl)ccc2[nH]1)C(=O)O)c1ccc2ccccc2c1
- Ki [3]: 173 nM

Structure (SMILES): O=C(N[C@H](Cc1cc2ccc(F)cc2[nH]1)C(=O)O)c1ccc2ccccc2c1
- solubility [1]: > 120 µg/mL
- pKa [2]: 3.92
- Ki [3]: 138 nM
- logP [4]: 2.59

Structure (SMILES): O=C(N[C@H](Cc1nc2cc(F)ccc2[nH]1)C(=O)O)c1ccc2ccccc2c1
- Ki [3]: 80 nM

Structure (SMILES): O=C(O)C1(Cc2cc3ccc(F)cc3[nH]2)CSC(/C=C/c2c(Cl)cccc2Cl)=N1 (racemic)
- Ki [3]: 580 nM
- IC50 [5]: 1900 nM

Structure (SMILES): O=C(CCc1c(Cl)cccc1Cl)N[C@H](Cc1cc2ccc(F)cc2[nH]1)C(=O)O
- solubility [1]: > 100 µg/mL
- pKa [2]: 3.9
- Ki [3]: 75 nM
- logP [4]: 3.5

Structure (SMILES): O=C(O)C1(Cc2cc3ccc(F)cc3[nH]2)CSC(CC2c3ccccc3-c3ccccc32)=N1 (racemic)
- Ki [3]: 320 nM
- IC50 [5]: 4200 nM

Structure (SMILES): O=C(O)C1(Cc2cc3ccc(F)cc3[nH]2)CSC(c2ccc3ccccc3c2)=N1 (racemic)
- Ki [3]: 1360 nM
- Activity [6]: Active
- Activity [7]: 5%
- Activity [8]: 18.7%
- Activity [9]: 71.1%
- Activity [10]: 10.2%
- IC50 [5]: 27000 nM

Structure (SMILES): O=C(N[C@H](Cc1nc2ccccc2s1)C(=O)O)c1ccc2ccccc2c1
- Ki [3]: 46000 nM

Structure (SMILES): O=C(N[C@H](Cc1nc2cc(Cl)ccc2[nH]1)C(=O)O)c1cc2ccccc2s1
- Ki [3]: 189 nM

Structure (SMILES): O=C(NC(Cc1nc2ccccc2[nH]1)C(=O)O)c1ccc2ccccc2c1 (racemic)
- Ki [3]: 1000 nM

Structure (SMILES): Cc1ccc2[nH]c(C[C@@H](NC(=O)c3cc4ccccc4s3)C(=O)O)nc2c1
- Ki [3]: 424 nM

Structure (SMILES): O=C(N[C@H](Cc1nc2cc(F)ccc2[nH]1)C(=O)O)c1cc2ccccc2s1
- Ki [3]: 76 nM

Structure (SMILES): O=C(O)C1(Cc2cc3ccc(F)cc3[nH]2)CSC(CCc2c(Cl)cccc2Cl)=N1 (racemic)
- Ki [3]: 196 nM
- IC50 [5]: 4600 nM

Structure (SMILES): O=C(Cc1cccc2ccccc12)N[C@H](Cc1cc2ccc(F)cc2[nH]1)C(=O)O
- solubility [1]: 106 µg/mL (≈ 272 µM)
- pKa [2]: 3.91
- Ki [3]: 400 nM
- logP [4]: 2.49
